{
  "source": "ChEMBL document CHEMBL5550161",
  "about": "“Discovery of novel small molecules targeting the USP21/JAK2/STAT3 axis for the treatment of triple-negative breast cancer” (Eur J Med Chem, 2024)",
  "key": {"HCC1806 [1]": {"tested_on": "HCC1806", "test": "Antitumor activity against human HCC1806 cells xenografted in Balb/c mouse assessed as reduction in tumor weight at 2.5 mg/kg, ip administered once a week measured after 14 days", "format": "functional, organism-based", "conditions": "time 14.0 day"}, "HCC1806 [2]": {"tested_on": "HCC1806", "test": "Antitumor activity against human HCC1806 cells xenografted in Balb/c mouse at 2.5 mg/kg, ip administered once a week measured after 14 days relative to control", "format": "functional", "conditions": "HCC1806, 336 h, time 14 day, read-out: TGI"}, "MDA-MB-231": {"tested_on": "MDA-MB-231", "test": "Anti-proliferative activity against human MDA-MB-231 cells assessed as cell growth inhibition incubated for 72 hrs by MTT assay", "format": "functional, cell-based", "conditions": "MDA-MB-231, 72 h"}, "HCC1806 [3]": {"tested_on": "HCC1806", "test": "Anti-proliferative activity against human HCC1806 cells assessed as cell growth inhibition incubated for 72 hrs by MTT assay", "format": "functional, cell-based", "conditions": "HCC1806, 72 h"}, "Hs-578T": {"tested_on": "Hs-578T", "test": "Anti-proliferative activity against human Hs-578T cells assessed as cell growth inhibition incubated for 72 hrs by MTT assay", "format": "functional, cell-based"}},
  "note": "The source made the active and inactive calls. No cut-off for these calls is given here.",
  "data": [
    {"smiles": "COc1cccc2c1C(=O)c1c(O)c3c(c(O)c1C2=O)C[C@@](O)(C(=O)CO)C[C@@H]3O[C@H]1C[C@H](N)[C@H](O)[C@H](C)O1", "note": "[DOXORUBICIN]", "values": [
      {"measurement": "Activity", "setting": "HCC1806 [1]", "result": "Active"},
      {"measurement": "inhibition in vivo at 2.5 mg/kg", "setting": "HCC1806 [2]", "result": 43.2, "unit": "%"},
      {"measurement": "IC50", "setting": "MDA-MB-231", "result": 210, "unit": "nM"},
      {"measurement": "IC50", "setting": "HCC1806 [3]", "result": 340, "unit": "nM"},
      {"measurement": "IC50", "setting": "Hs-578T", "result": 1070, "unit": "nM"}
    ]}
  ]
}
